Reference: patent US7491501B2, “Methods for identifying modulators of intracellular aggregate formation” (Auburn University, priority 2003, dated 2009)
Where a SMILES comes first, the peptide text is derived from it. [ ]: non-standard residue; d: D form. The star is where a group is joined. Nle = CCCC[C@H](N)C(=O)O; Cbz = O=C(OCc1ccccc1)*

Assays:
[1] = system: ubiquitinated tau; experiment: Accumulation of ubiquitinated tau in tau-transfected HEK cells treated with degradation inhibitors; assay type: cell-based, Human; conditions: 50 μM ALLN, 5 μM MG132 or 0.15 mM chloroquine, 24 h
Description: Depletion of p62 levels by transfection of antisense (AS) p62 retarded the turnover of p62 (FIG. 12A). […] Collectively these findings reveal that tau turnover is regulated by both the expression of p62 and the presence of K63 polyubiquitin chains carried by tau. The best known function of protein ubiquitination is to target proteins for degradation by the 26S proteasome. However, K63 chains have been hypothesized to play a role aside of targeting proteins to the proteasome. To test whether K63 chains are able to signal proteasomal degradation, tau was first ubiquitinylated in an in vitro reaction with K63 ubiquitin. The protein complex containing polyubiquitinated tau on beads was then incubated with 26S proteasome supplemented with MgCl2 and ATP. The polyubiquitinated chains disappeared after incubation with purified 26S proteasome (FIG. 12B). To determine whether the observed disappearance of polyubiquitinated products is due to degradation or to the deubiquitinating activity in the 26S proteasome fraction, a deubiquitination inhibitor, Ub-H was added to the reaction. […] To test if ubiquitinated tau was targeted to the proteasome, HEK cells cotransfected with His-tau were treated with ALLN, MG132 or chloroquine. Both ALLN and MG132 block proteasome degradation, whereas chloroquine blocks degradation through the lysosome. It was observed that ubiquitinated tau accumulates in the presence of proteasome inhibitors, but not chloroquine, thus confirming that polyubiquitinated tau is degraded by the proteasome (FIG. 12C).

[2] = system: p62 aggregates in HEK cells; experiment: p62 aggregate formation by confocal/fluorescence microscopy in transfected HEK cells; assay type: cell-based, Human; conditions: for large p62 aggregates upon inhibition of proteasomal degradation: MG132 data not shown; for size of aggregates of cotransfected p62, ubiquitin, TRAF6, tau, UbcH7: cotransfected cells (FIG. 9C), MG132 not shown; for formation of the p62 aggregates (microtubule dependence): data not shown
Procedure: Immunofluorescence staining—All steps were done at room temperature unless stated otherwise. The inclusion bodies were placed on poly-L-lysine coated 12 well slides (Cel-line/Erie Scientific Co., Portmouth, N.H.) and let partially dry. Inclusion bodies on the slides were fixed for 10 min in 3% paraformaldehyde (Electron Microscopy Sciences, Fort Washington, Pa.) and permeabilized with 0.1% Triton X-100 in PBS for 15 minutes. The inclusion bodies were incubated in blocking buffer (3% non fat dry milk in PBS) for 1 h, prior to incubation with primary antibodies at 4° C. overnight. After washing with PBS, the secondary antibody (Molecular Probes Inc., Eugene, Oreg.) in blocking buffer was applied for 1 h. After extensive washing in PBS, the samples were mounted using Vectashield (Vector Laboratories Inc., Burlingame, Calif.). The cells were fixed with 3% paraformaldehyde and processed similar to that of inclusion staining.
Cells were incubated with rabbit anti-myc IgG or mouse anti-HA IgG and labeled with Texas Red-conjugated anti-rabbit antibodies (red) or Oregon Green-conjugated anti-mouse antibodies (green), respectively. Merged images with overlapping immunoreactivity are shown in yellow. Note that cells expressing p62 lacking its UBA domain (p62ΔUBA) fail to form aggregates or to colocalize with ubiquitin. All experiments were replicated three independent times with similar results. Small aggregates of p62 colocalized with ubiquitin which was dependant upon the presence of a UBA domain but not the N-terminal portion of p62. Aggregation may impair the proteasome or, alternatively, impaired proteasome activity may seed aggregates. Alternatively, impairment of the proteasome may enhance the formation of p62 aggregates containing polyubiquitin.
In summary, through its UBA domain, p62 Interacts with polyubiquitinated substrates, and the UBA domain is necessary for aggregate formation.
Since TRAF6 localized to the large aggregates along with polyubiquitin (FIG. 2B), these aggregates may represent the failed attempt of the cell to rid itself of TRAF6-K63-polyubiquitinated substrates sequestered through interaction with the UBA domain. […] Altogether, these findings reveal that p62 binds proteins with K63 chains through its UBA domain and that p62 aggregates sequester TRAF6 as well as K63-polyubiquitinated substrates.
To further determine if the coassociation of tau-p62-TRAF6 and UbcH7 could be recapitulated in vitro, a cotransfection approach was undertaken. […] HEK cells were transfected with GFP-p62 followed by treatment or not with Aβ1-42 and Aβ42-1 peptides. […] This is consistent with the observation that microtubule dependent transport is important for the formation of p62 inclusions as assessed by treatment of the cells with nocodazole, a microtubule disrupting agent (9).

[3] = system: HEK cells; experiment: Cell survival by MTS reagent in p62-transfected HEK cells (FIG. 1D); assay type: cell-based, Human; conditions: ALLN (50 μM) 30 h
Procedure: In FIG. 1D HEK cells (in a 24-well plate) were transfected with myc-tagged wild-type p62, p62ΔUBA, or p62ΔN-term along with HA-tagged ubiquitin constructs. After 24 h of transfection, the cells were treated with or without ALLN (50 μM) for 30 h. Cell survival was assessed by the addition of MTS reagent for 2 h. Values plotted in FIG. 1D are means±standard error of the means of four different experiments.

[4] = system: GFP-p62-expressing cells; experiment: Live/Dead Viability/Cytotoxicity assay of cells with or without p62 aggregates; assay type: cell-based; conditions: With ALLN; cells scored by GFP-p62 expression
Procedure: Cell Death Assay—Live and dead cells were identified with LIVE/DEAD Viability/Cytotoxicity Kit (Molecular Probes, Eugene, Oreg.) according to the manufacturer's instruction.
The role of aggregates and their relationship to cell survival are controversial. […] Viability of cells with p62 aggregates employing the Live/Dead Viability/Cytotoxicity assay was determined (Table 1).

[5] = system: PC12 cells; experiment: Cell survival assay (MTS) in NGF-treated PC12 cells (Table 4); assay type: cell-based; conditions: PC12, NGF 50 ng/ml, MG132 25 μM, Aβ peptides 10 μM, 24 h, 100% without agent
Procedure: Cell Survival Assay—PC 2 cells were treated with 50 ng/ml NGF 24 h prior to addition of TRAF6 control or inhibitor peptide (75 μM). After 5 h, the cells were treated for an additional 24 h with or without MG132 (25 μM), Aβ peptide 42-1 or 1-42 (10 μM). Cell survival was measured by MTS assay.
All cells were treated with NGF (50 ng/ml), followed by addition of control or inhibitory TRAF6 peptide +/−Aβ peptide. Survival was measured by MTS assay.

[6] = system: tau aggregates in PC12 cells; experiment: Tau aggregate formation in NGF-treated PC12 cells (Table 3); assay type: cell-based; conditions: PC12, NGF 50 ng/ml; MG132 25 μM, Aβ peptides 10 μM; 6% without agent
Procedure: PC12 cells were treated with NGF to induce tau polyubiquitination and treated or not with MG132 or Aβ and Aβ1-42, Aβ42-1. […] The relationship between aggregate formation and cell death was assessed (Tables, 3 & 4). Tau aggregate formation was observed upon treatment with MG1 32 or Aβ1-42 peptide. […] Furthermore, aggregate formation correlated with enhanced […] (Table 4).
All cells were treated with NGF (50 ng/ml), followed by addition of control or inhibitory TRAF6 peptide +/−Aβ peptide. Cells were stained for tau and 300 cells from two independent experiments were scored for the presence of tau aggregates or not.

[7] = system: internalization of NGF by PC12 cells; experiment: Internalization of NGF, 125I-NGF binding assay in PC12 cells (FIG. 15D); assay type: cell-based; conditions: PC12 cells pretreated with peptide (150 μM); control not shown
Procedure: Additionally, PC12 cells were pretreated or not with TRAF6 peptide (150 μM) followed by measurement of internalized receptor employing 125I-NGF binding assay (FIG. 15D). […] Similarly, the level of internalized NGF was measured in PC12 cells transfected with wild-type ubiquitin, K48R or K63R ubiquitin mutants (FIG. 15E). Transfection of ubiquitin, or K48R mutant was without any effect on internalization of NGF. By comparison, transfection of K63R ubiquitin mutant totally abrogated internalization of the ligand. […] Thus, p62 serves as an adaptor, as well as, a scaffold for TRAF6-directed ubiquitination and K63 chains play a signaling role for internalization and sorting of the receptor.

[8] = biological target: T1, interaction of p62 with TRAF6 (Rattus norvegicus, UniProt B5DF45); experiment: TRAF6 immunoprecipitation and Western blot for p62/UbcH7 in NGF-stimulated PC12 cells; assay type: cell-based; conditions: 150 μM peptide 5 hours, NGF 15 min
T1 construct: followed by NGF stimulation for 15 min and immunoprecipitation of TRAF6 followed by Western blotting for p62; endogenous in cells; host or cells: PC12
Procedure: Immunoprecipitation and Western blotting—Each mg of lysate/inclusion bodies was incubated with 41 ng of primary antibody at 4° C. for 3 h and then with 50 μl of 50% agarose-coupled secondary antibody for 2 more hours at 4 C. The beads were washed three times with lysis buffer, eluted by adding SDS-PAGE sample buffer, and subjected to SDS-PAGE in 7.5-12% acrylamide gels. Immunoblotting was performed on nitrocellulose membranes and analyzed by western blotting with ECL detection reagents (Amersham Biosciences).
(§1) The region spanning amino acids 225-251 is necessary for the interaction of p62 with TRAF6. The peptide containing TRAF6 binding motif in p62 along with the hydrophobic sequence containing the cell-permeable motif from Kaposi fibroblast growth factor sequence, […]-[…] (SEQ ID NO. 4) and control peptide […]-[…] (SEQ ID NO. 5) was synthesized. As a preliminary step, PC12 cells were pretreated with various concentrations of peptide for 5 h, followed by NGF stimulation for 15 min and immunoprecipitation with TRAF6 and western blotted with p62. […] The peptide was then tested for its ability to block NGF-induced tau polyubiquitination (FIG. 13A).
(§2) The peptide containing the TRAF6-binding motif in p62 along with the hydrophobic sequence containing the cell-permeable motif from Kaposi fibroblast growth factor signal sequence […]-[…] (SEQ ID NO. 4) and control peptide […]-[…] (SEQ ID NO. 5) was synthesized. As a preliminary step, PC12 cells were pretreated with different concentrations (75-300 μM) of TRAF6 peptide for 5 hours followed by NGF stimulation for 15 min and immunoprecipitation of TRAF6 followed by Western blotting for p62. […] To address whether TRAF6 peptide affects the interaction of p62 and UbcH7 with TRAF6, PC12 cells were treated with or without 150 μM of control peptide or TRAF6 peptide for 5 hours and then stimulated with NGF for 15 min. By immunoprecipitating TRAF6, TRAF6 peptide (150 μM) abrogated the interaction of p62 with TRAF6, but not UbcH7, upon NGF treatment (FIG. 8A). […] The ability of the TRAF6 peptide to impair the ubiquitination process was investigated. Lysates recovered from NGF treated cells were immunoprecipitated with TrkA receptor antibody and blotted for ubiquitin or the receptor (FIG. 15B). […] The ability of the peptide to interrupt the formation of the functional TrkA-p62-TRAF6-UbcH7 complex on NGF stimulation as well was also investigated. TrkA was immunoprecipitated and blotted for the presence of each protein in the complex (FIG. 15C).

[9] = system: TrkA; experiment: NGF-dependent TrkA ubiquitination and TrkA complex formation in PC12 cells (FIG. 15B, 15C); assay type: cell-based; conditions: NGF treated, TrkA immunoprecipitation
Procedure: as §2

[10] = system: tau polyubiquitination; experiment: NGF-induced tau polyubiquitination in PC12 cells (FIG. 13A); assay type: cell-based; conditions: control not shown
Procedure: as §1

T1 sequence (B5DF45 whole entry): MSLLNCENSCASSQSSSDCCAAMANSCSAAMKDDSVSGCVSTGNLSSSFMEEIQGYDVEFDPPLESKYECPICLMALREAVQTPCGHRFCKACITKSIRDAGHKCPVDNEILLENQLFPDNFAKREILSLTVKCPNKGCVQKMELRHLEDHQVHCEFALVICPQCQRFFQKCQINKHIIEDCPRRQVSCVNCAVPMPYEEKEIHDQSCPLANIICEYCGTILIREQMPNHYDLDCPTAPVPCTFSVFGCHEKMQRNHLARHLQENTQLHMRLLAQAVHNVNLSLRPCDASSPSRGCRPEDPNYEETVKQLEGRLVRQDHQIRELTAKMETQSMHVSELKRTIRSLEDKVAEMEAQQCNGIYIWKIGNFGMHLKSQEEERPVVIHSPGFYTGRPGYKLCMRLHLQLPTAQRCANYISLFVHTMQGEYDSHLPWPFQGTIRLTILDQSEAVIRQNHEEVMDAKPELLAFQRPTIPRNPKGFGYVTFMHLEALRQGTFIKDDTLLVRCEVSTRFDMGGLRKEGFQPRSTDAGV
T1 sequence (D3Z8W5 1-154 partner): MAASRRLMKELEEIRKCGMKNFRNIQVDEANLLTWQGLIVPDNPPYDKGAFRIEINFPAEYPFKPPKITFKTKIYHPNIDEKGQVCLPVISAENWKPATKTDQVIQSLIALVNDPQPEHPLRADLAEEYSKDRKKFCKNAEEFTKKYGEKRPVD

## CCCC[C@@H](C=O)NC(=O)[C@H](CC(C)C)NC(=O)[C@H](CC(C)C)NC(C)=O [ALLN, N-acetyl-Leu-Leu-Norleu-AL] (Ac-Leu-Leu-[Nle]-aldehyde)
[1]
  accumulation of ubiquitinated tau: accumulates
[2]; HEK cells, ALLN (50 μM) 24 h, 6 to 8 microns without ALLN
  size of the aggregates: 12 to 14 microns
[2]; HEK cells, ALLN treatment
  GFP-p62-expressing cells accumulating large p62 aggregates: 100%
[2]; HEK cells, with versus without ALLN
  average number of aggregates per cell: essentially similar
[2]; HEK cells
  large p62 aggregates upon inhibition of proteasomal degradation: large aggregates of p62 which contained sequestered polyubiquitin were visible
[2]
  size of aggregates of cotransfected p62, ubiquitin, TRAF6, tau, UbcH7: increased in size
[3]
  cell survival-promoting effects of p62: completely inhibited
[4]
  % of cells, With aggregates, Alive: 48%
  % of cells, With aggregates, Dead: 52%
  % of cells, Without aggregates, Alive: 38%
  % of cells, Without aggregates, Dead: 62%

## CC(C)C[C@@H](C=O)NC(=O)[C@H](CC(C)C)NC(=O)[C@H](CC(C)C)NC(=O)OCc1ccccc1 [MG132, Z-Leu-Leu-Leu-CHO] (Cbz-Leu-Leu-Leu-aldehyde)
[1]
  accumulation of ubiquitinated tau: accumulates
[5]
  cell survival, agent alone (Control, no TRAF6 peptide): 44.3%
[6]
  cells with tau aggregates, agent alone (Control, no TRAF6 peptide): 82%
[2]; HEK cells
  large p62 aggregates upon inhibition of proteasomal degradation: large aggregates of p62 which contained sequestered polyubiquitin were visible
[2]
  size of aggregates of cotransfected p62, ubiquitin, TRAF6, tau, UbcH7: increased in size

## CCN(CC)CCCC(C)Nc1ccnc2cc(Cl)ccc12 (centres unmarked) [chloroquine]
[1]
  accumulation of ubiquitinated tau: not

## COC(=O)Nc1nc2ccc(C(=O)c3cccs3)cc2[nH]1 [nocodazole]
[2]
  formation of the p62 aggregates (microtubule dependence): prevented their formation

## CC[C@]1(O)C[C@@H]2CN(CCc3c([nH]c4ccccc34)[C@@](C(=O)OC)(c3cc4c(cc3OC)N(C)[C@H]3[C@@](O)(C(=O)OC)[C@H](OC(C)=O)[C@]5(CC)C=CCN6CC[C@]43[C@@H]65)C2)C1 [vinblastine]
[2]
  formation of the p62 aggregates (microtubule dependence): prevented their formation

## AAVALLPAVLLALLAP-ESASGASADASVNFLK [control peptide]
[7]
  internalization of NGF: not
[8]
  interaction of p62 with TRAF6: without effect
[9]
  NGF-dependent ubiquitination of TrkA: no effect
[10]
  NGF-induced tau polyubiquitination: not

## Aβ1-42: neurotoxic amyloid beta peptide
[5]
  cell survival, agent alone (Control, no TRAF6 peptide): 45.7%
[6]
  cells with tau aggregates, agent alone (Control, no TRAF6 peptide): 72%
[2]; HEK cells transfected with GFP-p62 (FIG. 9D)
  formation of p62 aggregates by Aβ peptide: induced formation of p62 aggregates
